Measured values: patent US20110318431A1, “Pharmaceutical Compositions and Methods of Treating Neurological Insults” (ENDOGENX, priority 2008, published 2011)
Entries after “also recorded” stand apart in the source; their conditions may differ. Like-named read-outs stand apart in the source and are kept apart here.

Experiments:
[1] = Clinical study in patients with infarct: Glasgow outcome scale, Barthel Index, Modified Rankin Score; format: in vivo, human
[2] = Evaluation of therapy for side effects of magnesium sulfate with and without mannitol treatment
Procedure: Safety—safety of subjects was maintained at all times. Adverse events and clinical laboratory data were obtained. Serious and non-serious adverse effects and clinical laboratory data were compared between groups.
Group 1. Magnesium sulfate 16 gm a day (4 vials each of 1 gm of magnesium sulfate mixed with 100 ml normal saline was infused 6 hourly for five days)
Group 3. Magnesium sulfate 8 gm a day plus mannitol (2 vials each of 1 gm of magnesium sulfate mixed with 50 ml normal saline was infused 6 hourly for five days; in addition 100 ml of 20% mannitol once a day with first dose of magnesium sulfate was administered)
Evaluation of therapy for side effects of magnesium sulfate with and without mannitol treatment

[3] = 16 mmol bolus and 65 mmol continuous infusion over 24 hrs; cited from earlier work
[4] = cited from earlier work
[5] = pediatric TBI patients; 50 mg/kg IV then 8.3 mg/kg/hour for 24 hours; cited from earlier work
[6] = cited from earlier work; remark: listed apart in the source
[7] = end of 24 hour infusion, cited from earlier work
[8] = at the end of three months; 4 g IV and 10 g IM within 12 hours of injury, then 5 g IM every 4 hours for 24 hours; cited from earlier work
[9] = magnesium therapy; cited from earlier work
[10] = cited from earlier work; remark: listed apart in the source
[11] = after one month of follow up; loading dose 16 mM then 6 mM/hour for 5 days IV; cited from earlier work
[12] = cited from earlier work; remark: listed apart in the source
[13] = 283 patients with aneurysmal subarachnoid hemorrhage; cited from earlier work
[14] = cited from earlier work; remark: listed apart in the source
[15] = cited from earlier work; remark: listed apart in the source
[16] = number out of total 15 patients, magnesium sulfate 16 gm a day, five days

O=S(=O)([O-])[O-].[Mg+2] [magnesium sulfate]
Patient outcome, magnesium sulfate (16 gm) group compared to mannitol group ([1]; magnesium sulfate 16 gm a day for five days): improved
Effectiveness of magnesium sulfate (16 gm) versus magnesium sulfate (8 gm) plus mannitol ([1]; patients with cerebrovascular accidents): equally effective
Incidence of side effects, magnesium sulfate (16 gm) alone compared to magnesium sulfate (8 gm) plus mannitol ([2]; five days treatment): greater; also recorded: higher
Constipation [2, 16]: 4
Facial flushing [2, 16]: 8
Heart block [2, 16]: 3
Hypotension [2, 16]: 3
Nausea [2, 16]: 5
Paradoxical bradycardia [2, 16]: 3
Respiratory distress [2, 16]: 2
Mortality versus placebo [3]: slightly higher
Primary outcome [3]: not improved
Patients with good functional outcome ([4]; at 3 months): 60%
Patient status on hospital arrival rated improved ([4]; rated by paramedics, 10 mmol bolus and 64 mmol infusion over 24 hrs): 20%
Patient status on hospital arrival rated unchanged ([4]; rated by paramedics): 75%
Patient status on hospital arrival rated worsened ([4]; rated by paramedics): 5%

[Mg] [magnesium]
Adverse hemodynamic effects [5]: No adverse hemodynamic effects were observed
Composite primary outcome at 6 months post-injury ([6]; administration within 8 hours of moderate to severe TBI for 5 days, continuous infusion): did not show any beneficial effects
Mortality ([6]; high dose of magnesium): Significantly higher mortality
Composite score versus placebo ([6]; lower dose of magnesium): worse than the placebo treated patients
CSF ionized magnesium increase relative to baseline [7]: 11%
CSF total magnesium increase relative to baseline [7]: 15%
Serum magnesium concentrations relative to baseline ([7]; dose adjusted to serum 2.1-2.5 mM/L): doubled from baseline
Patients with favorable outcome including reduced mortality and intra-operative brain swelling [8]: 73%
Outcome at six months [9]: failed to provide a favorable outcome
Serum magnesium level ([10]; over 24 hours, 8 mmol over 15 minutes followed by 65 mmol over 24 hours IV, rose from 0.76 mM/L): 1.42 mM/L
Blood pressure or adverse events versus placebo-treated patients ([10]; stroke patients): No differences
Patient outcome, outcome scales (Orgogozo, Mathew, Rankin) [11]: significant positive effect
Target serum concentrations achieved ([12]; 16 mmol loading infusion): 1.49 mmol/L
Effects on heart rate, blood pressure, or blood glucose ([12]; loading dose 8, 12 or 16 mM followed by 65 mM infusion over 24 hours): no obvious effects
Delayed cerebral ischemia and subsequent poor outcome [13]: reduced

OC[C@@H](O)[C@@H](O)[C@H](O)[C@H](O)CO [mannitol, D-mannitol]
Effectiveness of mannitol compared to control ([1]; 100 ml 20% mannitol once a day for five days): not effective compared to control
Glasgow outcome scale (GOS), Barthel Index (BI) and Modified Rankin Score (MRS), mannitol group versus control group ([1]; 100 ml 20% mannitol once a day for five days, day 1, day 5, day 15, day 30): similar
Barthel Index (BI) and Modified Rankin Score (MRS), mannitol group compared to magnesium sulfate (8 gm) plus mannitol group ([1]; day 5, day 15, day 30): significantly higher
Barthel Index (BI) and Modified Rankin Score (MRS), mannitol group compared to magnesium sulfate (16 gm) group ([1]; day 5, day 15, day 30): significantly higher
Glasgow outcome scale (GOS), mannitol group compared to magnesium sulfate (8 gm) plus mannitol group ([1]; day 5, day 15, day 30): significantly lower
Glasgow outcome scale (GOS), mannitol group compared to magnesium sulfate (16 gm) group ([1]; day 5, day 15, day 30): significantly lower
Half life ([14]; humans with normal renal function): 1.2 h
Osmolal gap corresponding to renal toxicity ([14]; humans): > 55 mosm/kg of water
Serum mannitol concentration at which renal toxicity / acute renal failure occurs ([14]; humans): > 1000 mg/dL
Half life ([14]; uremia patients): 36 h
Mortality with acute renal failure ([15]; massive mannitol infusion to 4 male adults): 2/4
Onset of acute renal failure after infusion ([15]; massive mannitol infusion, Mean+SD): 48 ± 22 h
